Tested on: MDRAB
Experiment: Checkerboard assay (combined-use MIC, FIC)
Assay type: cell-based, Acinetobacter baumannii
Conditions: for FIC, all strains / MIC50 of the antibiotic after combined use / MIC90 of the antibiotic after combined use / reduction of the antibiotic's MIC50 vs single use / reduction of the antibiotic's MIC90 vs single use / share of strains with FIC ≤ 0.5: 20 MDRABs
Protocol: Test methods of the sensibilization effects of the test product to similar antibiotics: it is operated by referring to a checkerboard assay recommended by NCCLS.
The checkerboard assay is performed in a 96-pore sterile culture plate.
Calculation of a Fractional Inhibitory Concentration (FIC): FIC=S20b combined-use MIC/S20b single-use MIC+antibiotic combined-use MIC/antibiotic single-use MIC. By calculating the FIC, the combined antibacterial interaction between the EA and the antibiotic is evaluated, with synergistic effect for FIC≤0.5, additive effect for 0.5<FIC≤1, indifferent effect for 1<FIC≤2 and antagonistic effect for FIC>2. According to a sterile growth pore, the optimum concentration ratio between the EA and the antibiotic is founded out. At last, the effect of the EA to strengthen the efficacy of the antibiotic is evaluated.

[1] = antibiotic with 60% ethanol extract
[2] = antibiotic with 95% ethanol extract
[3] = antibiotic with EA (10% ethanol extract)
[4] = antibiotic with EA (water extract)

Polymycin B [POLB]
FIC, all strains [1]: ≤ 2
MIC50 of the antibiotic after combined use [1]: 0.5 µg/mL
MIC90 of the antibiotic after combined use [1]: 4 µg/mL
reduction of the antibiotic's MIC50 vs single use [1]: 87.5%
reduction of the antibiotic's MIC90 vs single use [1]: 75%
share of strains with FIC ≤ 0.5 [1]: 15%
FIC, all strains [2]: ≤ 2
MIC50 of the antibiotic after combined use [2]: 1 µg/mL
MIC90 of the antibiotic after combined use [2]: 4 µg/mL
reduction of the antibiotic's MIC50 vs single use [2]: 75%
reduction of the antibiotic's MIC90 vs single use [2]: 75%
share of strains with FIC ≤ 0.5 [2]: 20%
FIC, all strains [3]: ≤ 2
MIC50 of the antibiotic after combined use [3]: 1 µg/mL
MIC90 of the antibiotic after combined use [3]: 4 µg/mL
reduction of the antibiotic's MIC50 vs single use [3]: 75%
reduction of the antibiotic's MIC90 vs single use [3]: 75%
share of strains with FIC ≤ 0.5 [3]: 15%
FIC, all strains [4]: ≤ 2
MIC50 of the antibiotic after combined use [4]: 1 µg/mL
MIC90 of the antibiotic after combined use [4]: 4 µg/mL
reduction of the antibiotic's MIC50 vs single use [4]: 75%
reduction of the antibiotic's MIC90 vs single use [4]: 75%
share of strains with FIC ≤ 0.5 [4]: 25%
combined-use MIC (strain A1, EA (10% ethanol extract) with POLB): 4 µg/mL
combined-use MIC (strain A1, EA (60% ethanol extract) + POLB combined): 4 µg/mL
combined-use MIC (strain A1, EA (95% ethanol extract) + POLB combined): 4 µg/mL
combined-use MIC (strain A1, EA (water extract) with POLB): 4 µg/mL
single-use MIC (strain A1, EA=60% ethanol extract): 8 µg/mL
single-use MIC (strain A1, EA=95% ethanol extract): 8 µg/mL
combined-use MIC (strain A2, EA (10% ethanol extract) with POLB): 1 µg/mL
combined-use MIC (strain A2, EA (60% ethanol extract) + POLB combined): 0.5 µg/mL
combined-use MIC (strain A2, EA (95% ethanol extract) + POLB combined): 0.5 µg/mL
combined-use MIC (strain A2, EA (water extract) with POLB): 1 µg/mL
single-use MIC (strain A2, EA=60% ethanol extract): 2 µg/mL
single-use MIC (strain A2, EA=95% ethanol extract): 2 µg/mL
combined-use MIC (strain A3, EA (10% ethanol extract) with POLB): 1 µg/mL
combined-use MIC (strain A3, EA (60% ethanol extract) + POLB combined): 1 µg/mL
combined-use MIC (strain A3, EA (95% ethanol extract) + POLB combined): 1 µg/mL
combined-use MIC (strain A3, EA (water extract) with POLB): 0.5 µg/mL
single-use MIC (strain A3, EA=60% ethanol extract): 2 µg/mL
single-use MIC (strain A3, EA=95% ethanol extract): 2 µg/mL
combined-use MIC (strain A4, EA (10% ethanol extract) with POLB): 1 µg/mL
combined-use MIC (strain A4, EA (60% ethanol extract) + POLB combined): 1 µg/mL
combined-use MIC (strain A4, EA (95% ethanol extract) + POLB combined): 1 µg/mL
combined-use MIC (strain A4, EA (water extract) with POLB): 0.5 µg/mL
single-use MIC (strain A4, EA=60% ethanol extract): 2 µg/mL
single-use MIC (strain A4, EA=95% ethanol extract): 2 µg/mL
single-use MIC (strain A5 (printed AS in tables A43, A45), EA=95% ethanol extract): 4 µg/mL
combined-use MIC (strain A5, EA (10% ethanol extract) with POLB): 1 µg/mL
combined-use MIC (strain A5, EA (60% ethanol extract) + POLB combined): 2 µg/mL
combined-use MIC (strain A5, EA (water extract) with POLB): 0.5 µg/mL
single-use MIC (strain A5, EA=60% ethanol extract): 4 µg/mL
combined-use MIC (strain A6, EA (10% ethanol extract) with POLB): 1 µg/mL
combined-use MIC (strain A6, EA (60% ethanol extract) + POLB combined): 2 µg/mL
combined-use MIC (strain A6, EA (95% ethanol extract) + POLB combined): 2 µg/mL
combined-use MIC (strain A6, EA (water extract) with POLB): 2 µg/mL
single-use MIC (strain A6, EA=60% ethanol extract): 8 µg/mL
single-use MIC (strain A6, EA=95% ethanol extract): 8 µg/mL
combined-use MIC (strain A7, EA (10% ethanol extract) with POLB): 1 µg/mL
combined-use MIC (strain A7, EA (60% ethanol extract) + POLB combined): 2 µg/mL
combined-use MIC (strain A7, EA (95% ethanol extract) + POLB combined): 2 µg/mL
combined-use MIC (strain A7, EA (water extract) with POLB): 1 µg/mL
single-use MIC (strain A7, EA=60% ethanol extract): 4 µg/mL
single-use MIC (strain A7, EA=95% ethanol extract): 4 µg/mL
combined-use MIC (strain A8, EA (10% ethanol extract) with POLB): 0.0625 µg/mL
combined-use MIC (strain A8, EA (60% ethanol extract) + POLB combined): 0.0625 µg/mL
combined-use MIC (strain A8, EA (95% ethanol extract) + POLB combined): 1 µg/mL
combined-use MIC (strain A8, EA (water extract) with POLB): 0.0625 µg/mL
single-use MIC (strain A8, EA=60% ethanol extract): 8 µg/mL
single-use MIC (strain A8, EA=95% ethanol extract): 8 µg/mL
combined-use MIC (strain A9, EA (10% ethanol extract) with POLB): 0.0625 µg/mL
combined-use MIC (strain A9, EA (60% ethanol extract) + POLB combined): 0.0625 µg/mL
combined-use MIC (strain A9, EA (95% ethanol extract) + POLB combined): 0.25 µg/mL
combined-use MIC (strain A9, EA (water extract) with POLB): 0.0625 µg/mL
single-use MIC (strain A9, EA=60% ethanol extract): 1 µg/mL
single-use MIC (strain A9, EA=95% ethanol extract): 1 µg/mL
combined-use MIC (strain A10, EA (10% ethanol extract) with POLB): 4 µg/mL
combined-use MIC (strain A10, EA (60% ethanol extract) + POLB combined): 8 µg/mL
combined-use MIC (strain A10, EA (95% ethanol extract) + POLB combined): 8 µg/mL
combined-use MIC (strain A10, EA (water extract) with POLB): 8 µg/mL
single-use MIC (strain A10, EA=60% ethanol extract): 32 µg/mL
single-use MIC (strain A10, EA=95% ethanol extract): 32 µg/mL
combined-use MIC (strain A11, EA (10% ethanol extract) with POLB): 8 µg/mL
combined-use MIC (strain A11, EA (60% ethanol extract) + POLB combined): 4 µg/mL
combined-use MIC (strain A11, EA (95% ethanol extract) + POLB combined): 4 µg/mL
combined-use MIC (strain A11, EA (water extract) with POLB): 4 µg/mL
single-use MIC (strain A11, EA=60% ethanol extract): 16 µg/mL
single-use MIC (strain A11, EA=95% ethanol extract): 16 µg/mL
combined-use MIC (strain A12, EA (10% ethanol extract) with POLB): 1 µg/mL
combined-use MIC (strain A12, EA (60% ethanol extract) + POLB combined): 0.5 µg/mL
combined-use MIC (strain A12, EA (95% ethanol extract) + POLB combined): 1 µg/mL
combined-use MIC (strain A12, EA (water extract) with POLB): 0.0625 µg/mL
single-use MIC (strain A12, EA=60% ethanol extract): 2 µg/mL
single-use MIC (strain A12, EA=95% ethanol extract): 2 µg/mL
combined-use MIC (strain A13, EA (10% ethanol extract) with POLB): 1 µg/mL
combined-use MIC (strain A13, EA (60% ethanol extract) + POLB combined): 1 µg/mL
combined-use MIC (strain A13, EA (95% ethanol extract) + POLB combined): 1 µg/mL
combined-use MIC (strain A13, EA (water extract) with POLB): 1 µg/mL
single-use MIC (strain A13, EA=60% ethanol extract): 2 µg/mL
single-use MIC (strain A13, EA=95% ethanol extract): 2 µg/mL
combined-use MIC (strain A14, EA (10% ethanol extract) with POLB): 0.0625 µg/mL
combined-use MIC (strain A14, EA (60% ethanol extract) + POLB combined): 0.0625 µg/mL
combined-use MIC (strain A14, EA (95% ethanol extract) + POLB combined): 0.25 µg/mL
combined-use MIC (strain A14, EA (water extract) with POLB): 0.0625 µg/mL
single-use MIC (strain A14, EA=60% ethanol extract): 0.5 µg/mL
single-use MIC (strain A14, EA=95% ethanol extract): 0.5 µg/mL
combined-use MIC (strain A15, EA (10% ethanol extract) with POLB): 1 µg/mL
combined-use MIC (strain A15, EA (60% ethanol extract) + POLB combined): 0.0625 µg/mL
combined-use MIC (strain A15, EA (95% ethanol extract) + POLB combined): 0.0625 µg/mL
combined-use MIC (strain A15, EA (water extract) with POLB): 0.0625 µg/mL
single-use MIC (strain A15, EA=60% ethanol extract): 2 µg/mL
single-use MIC (strain A15, EA=95% ethanol extract): 2 µg/mL
combined-use MIC (strain A16, EA (10% ethanol extract) with POLB): 1 µg/mL
combined-use MIC (strain A16, EA (60% ethanol extract) + POLB combined): 0.0625 µg/mL
combined-use MIC (strain A16, EA (95% ethanol extract) + POLB combined): 0.0625 µg/mL
combined-use MIC (strain A16, EA (water extract) with POLB): 0.0625 µg/mL
single-use MIC (strain A16, EA=60% ethanol extract): 4 µg/mL
single-use MIC (strain A16, EA=95% ethanol extract): 4 µg/mL
combined-use MIC (strain A17, EA (10% ethanol extract) with POLB): 16 µg/mL
combined-use MIC (strain A17, EA (60% ethanol extract) + POLB combined): 2 µg/mL
combined-use MIC (strain A17, EA (95% ethanol extract) + POLB combined): 4 µg/mL
combined-use MIC (strain A17, EA (water extract) with POLB): 2 µg/mL
single-use MIC (strain A17, EA=60% ethanol extract): 64 µg/mL
single-use MIC (strain A17, EA=95% ethanol extract): 64 µg/mL
combined-use MIC (strain A18, EA (10% ethanol extract) with POLB): 1 µg/mL
combined-use MIC (strain A18, EA (60% ethanol extract) + POLB combined): 0.5 µg/mL
combined-use MIC (strain A18, EA (95% ethanol extract) + POLB combined): 1 µg/mL
combined-use MIC (strain A18, EA (water extract) with POLB): 2 µg/mL
single-use MIC (strain A18, EA=60% ethanol extract): 4 µg/mL
single-use MIC (strain A18, EA=95% ethanol extract): 4 µg/mL
combined-use MIC (strain A19, EA (10% ethanol extract) with POLB): 1 µg/mL
combined-use MIC (strain A19, EA (60% ethanol extract) + POLB combined): 0.5 µg/mL
combined-use MIC (strain A19, EA (95% ethanol extract) + POLB combined): 1 µg/mL
combined-use MIC (strain A19, EA (water extract) with POLB): 2 µg/mL
single-use MIC (strain A19, EA=60% ethanol extract): 4 µg/mL
single-use MIC (strain A19, EA=95% ethanol extract): 4 µg/mL
combined-use MIC (strain A20, EA (10% ethanol extract) with POLB): 1 µg/mL
combined-use MIC (strain A20, EA (60% ethanol extract) + POLB combined): 0.5 µg/mL
combined-use MIC (strain A20, EA (95% ethanol extract) + POLB combined): 0.5 µg/mL
combined-use MIC (strain A20, EA (water extract) with POLB): 1 µg/mL
single-use MIC (strain A20, EA=60% ethanol extract): 2 µg/mL
single-use MIC (strain A20, EA=95% ethanol extract): 2 µg/mL
combined-use MIC (strain AS, EA (95% ethanol extract) + POLB combined): 2 µg/mL

— US11793849B2, “Method of Chinese herbal medicine extract used for treating multiple diseases caused by drug resistant bacteria infection” (priority 2016, dated 2023)
